Assay results: ChEMBL document CHEMBL1128065, “Stereochemical preferences and requirement for the 3-hydroxyl group in novel anticonvulsant 4-fluorobenzoylamino benzopyrans” (1995)

Species: Mus musculus
Test: Effect on percent increase in seizure threshold was evaluated by maximal electroshock threshold (MEST) test in mouse
Format: functional
Details: not given

| SMILES | Increase |
| --- | --- |
| CC1(C)Oc2ccc(C#N)cc2[C@H](NC(=O)c2ccc(F)cc2)[C@H]1O | 41% |
| CC1(C)Oc2ccc(C#N)cc2[C@@H](NC(=O)c2ccc(F)cc2)[C@@H]1O | 17% |
| CC1(C)CC(NC(=O)c2ccc(F)cc2)c2cc(C#N)ccc2O1 (configuration not stated) | 5% |
| CC1(C)Oc2ccc(C#N)cc2[C@@H](NC(=O)c2ccc(F)cc2)[C@H]1O | 0% |
| CC1(C)Oc2ccc(C#N)cc2[C@H](NC(=O)c2ccc(F)cc2)[C@@H]1O | 28% |

The compounds below were run on Rattus norvegicus (assay: Tested for blood pressure fall on i.v. administration at a dose of 10 mg/kg infused over 30 minutes in pentobarbitone-anaesthetized hooded lister rats). Details: route intravenous.
Format: functional

| SMILES | BP |
| --- | --- |
| CC1(C)Oc2ccc(C#N)cc2[C@@H](NC(=O)c2ccc(F)cc2)[C@H]1O | 36% |
| CC1(C)Oc2ccc(C#N)cc2[C@H](NC(=O)c2ccc(F)cc2)[C@@H]1O | 5% |
